According to patent US20090028925A1, “Novel Phosphinic Acid-Containing Thyromimetics” (priority 2005, published 2009):
Where two headings read alike, the source gives them in different places.

Key:
[1] = target: T1, human thyroid hormone receptors TRα1 (Homo sapiens, UniProt P10827); assay: Receptor binding to TRα1 (gel filtration and scintillation proximity assay, labeled T3); conditions: SPA data; read-out: Ki TRα
T1 construct: made in house; host or cells: Sf9 insect cells (baculovirus)
T1 sequence (P10827 1-410 isoform P10827-2): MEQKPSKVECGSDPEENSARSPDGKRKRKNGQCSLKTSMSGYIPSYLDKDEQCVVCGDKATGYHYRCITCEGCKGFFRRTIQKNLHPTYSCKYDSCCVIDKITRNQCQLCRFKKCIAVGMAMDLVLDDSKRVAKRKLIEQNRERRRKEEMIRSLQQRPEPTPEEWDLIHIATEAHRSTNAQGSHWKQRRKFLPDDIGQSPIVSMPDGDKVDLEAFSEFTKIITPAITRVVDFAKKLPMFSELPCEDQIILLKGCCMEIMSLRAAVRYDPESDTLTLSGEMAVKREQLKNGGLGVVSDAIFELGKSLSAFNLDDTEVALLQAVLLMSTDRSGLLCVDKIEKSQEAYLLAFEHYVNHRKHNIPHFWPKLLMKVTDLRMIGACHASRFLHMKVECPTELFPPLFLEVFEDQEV
T1 sequence (P19793 1-462 partner): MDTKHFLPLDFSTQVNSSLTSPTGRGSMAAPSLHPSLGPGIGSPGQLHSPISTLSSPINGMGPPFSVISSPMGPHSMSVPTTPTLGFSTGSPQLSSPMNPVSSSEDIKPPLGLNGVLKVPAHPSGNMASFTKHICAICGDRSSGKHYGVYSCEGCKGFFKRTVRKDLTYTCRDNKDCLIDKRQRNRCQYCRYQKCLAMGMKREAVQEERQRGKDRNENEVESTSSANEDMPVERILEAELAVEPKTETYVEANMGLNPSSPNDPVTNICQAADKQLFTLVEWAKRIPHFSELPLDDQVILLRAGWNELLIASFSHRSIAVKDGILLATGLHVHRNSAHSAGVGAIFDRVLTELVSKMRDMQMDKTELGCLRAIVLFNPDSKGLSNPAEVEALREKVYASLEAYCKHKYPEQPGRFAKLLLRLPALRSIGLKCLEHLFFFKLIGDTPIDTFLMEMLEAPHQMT

[2] = parameters: species or system rats; conditions: in vivo, po
Protocol: The oral bioavailability (OBAV) of Compound 12-1, a bis POM prodrug of Compound 7, was estimated by comparison of the dose-normalized area under the curve (AUC) of the plasma concentration-time profile of Compound 7 following IV and PO administration of Compound 7 and Compound 12-1, respectively, to normal rats.
Method: Groups of non-fasted male SD rats were administered either 5 mg/kg of Compound 7 by IV bolus or 20 mg/kg of Compound 12-1 by oral gavage. Prior to drug administration, the rats were catheterized at the tail artery to facilitate blood collection. Plasma samples were obtained at pre-specified time points following dosing, extracted with 1.5 volumes of methanol, and then assayed by an LC-UV method using a C18 column eluted with a gradient of 20% to 45% v/v acetonitrile in a potassium phosphate buffer pH 6.2 over 15 min with UV absorbance monitoring at 280 nm. The AUC values were determined noncompartmentally from the plasma concentration-time plots by trapezoidal summation to the last measurable time point.
Plasma levels of compound were analyzed by HPLC and the AUCs for the i.v. dose of 5 mg/kg and the p.o. dose of 20 mg/kg were compared. The maximum OBAV for Compound 19-2 was 0.003%. Typically, compounds that are taken forward as an oral drug candidate have OBAV values of at least 15-20%, when tested in an animal model. This minimal requirement for OBAV in a genetically homogenous model system insures that exposure can be accurately monitored when humans are treated with the compound. Furthermore, in a genetically variable background such as humans, the variability for a compound with low OBAV in genetically homogenous model systems, can be widely variable, leading some subjects to have much higher than anticipated exposure, while other subjects have no exposure.

[3] = target: T2, human thyroid hormone receptors TRβ1 (Homo sapiens, UniProt P10828); assay: Receptor binding to TRβ1 (gel filtration and scintillation proximity assay, labeled T3); conditions: SPA data; read-out: Ki TRβ
T2 construct: made in house; host or cells: Sf9 insect cells (baculovirus)
T2 sequence (P10828 1-461): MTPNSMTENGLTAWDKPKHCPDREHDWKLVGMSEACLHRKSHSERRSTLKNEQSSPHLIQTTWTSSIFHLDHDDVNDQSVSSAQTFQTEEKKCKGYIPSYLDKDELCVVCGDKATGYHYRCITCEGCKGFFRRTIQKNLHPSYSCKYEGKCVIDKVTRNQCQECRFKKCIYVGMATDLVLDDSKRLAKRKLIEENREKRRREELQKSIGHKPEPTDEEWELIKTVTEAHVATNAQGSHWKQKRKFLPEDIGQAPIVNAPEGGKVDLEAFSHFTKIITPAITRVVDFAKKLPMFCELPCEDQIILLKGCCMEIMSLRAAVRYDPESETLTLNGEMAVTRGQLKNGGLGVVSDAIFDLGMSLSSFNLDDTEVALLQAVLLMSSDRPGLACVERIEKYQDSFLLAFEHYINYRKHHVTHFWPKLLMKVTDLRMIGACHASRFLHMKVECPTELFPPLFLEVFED
T2 sequence (P19793 1-462 partner): T1 sequence (P19793 1-462 partner)

[4] = test system: CYP3A (cytochrome P450-3A (CYP3A4)); assay: Prodrug activation in rat liver microsomes; format: in vitro ADME; conditions: liver microsomes from dexamethasone-treated rats; dexamethasone treated rat microsomes, formation of Compound 7
Excerpt: (§1) The purpose of these studies was to determine the kinetics of activation of prodrugs of thyromimetics in microsomal preparations. Microsomes contain the P450 enzyme that is required for the activation of many of the prodrugs prepared. The Km, Vmax, and intrinsic clearance values determined are measures of prodrug affinity for the microsomal enzymes, the rate at which the prodrug is activated, and the catalytic efficiency with which the prodrug is activated, respectively.
(§2) Methods: Activation of prodrugs by dexamethasone treated rat hepatocyte microsomes. Microsomes were isolated by standard differential centrifugation methods from dexamethasone-treated rats. The treatment is to increase cytochrome P450-3A (CYP3A4) activity. Induction of CYP3A4 was confirmed by an increase in testosterone hydroxylation.
(§3) Various concentrations of HepDirect™ Compound 7 were incubated with rat hepatocytes microsomes. Compound 7 formation was analyzed by HPLC using UV-Vis detection. Kinetic parameters (Vmax and Km) were calculated from the transformed data and the intrinsic clearance calculated from the kinetic parameters.

[5] = Prodrug activation in rat liver microsomes; format: in vitro ADME; conditions: for Vmax: dexamethasone treated rat microsomes, formation of Compound 7; for microsomal CLint: rat, liver microsomes from dexamethasone-treated rats, intrinsic clearance calculated from the kinetic parameters
Excerpt: as §1, §2, §3

[6] = Continuous infusion study in rats on a cholesterol-containing diet; format: in vivo; conditions: continuous infusion 1 mg/kg/day; for cholesterol lowering effects: day 7 and day 14; for cardiovascular parameters (heart rate, LV dP/dt, systolic and diastolic blood pressure): day 7 or day 14
Method: Screening for thyromimetic activity was performed in normal rats maintained on a cholesterol-containing diet. Compounds were administered by continuous infusion using an osmotic pump at 1 mg/kg/day.

[7] = test system: plasma cholesterol; assay: Cholesterol lowering in hypercholesterolemic rats; format: in vivo; conditions: for change in vivo at 0.2 mg/kg/day: Rattus norvegicus, po, read-out: % Cholesterol Lowering
[8] = effects on cholesterol and TSH at the same or not pharmacologically different doses; cited from earlier work
[9] = delivered p.o. (0.2 mg/kg/d), percentage change from pre-dose cholesterol

Ki [1] [nM] | Ki [3] [nM] | Km [4] [µM] | microsomal CLint [5] [µL/min/mg] | Compound | Vmax [5] [pmol/min/mg] | also measured
1670 | 662 | – | – | Cc1cc(OCP(=O)(OCOC(=O)C(C)(C)C)OCOC(=O)C(C)(C)C)cc(C)c1Cc1ccc(O)c(C(C)C)c1 [Compound 12-1, di(pivaloyloxymethyl) [3,5-Dimethyl-4-(4′-hydroxy-3′-iso-propylbenzyl)phenoxy]methylphosphonate] | – | absorption in the rat [2]: adequately absorbed
738 | 156 | 14 | 54 | Cc1cc(OCP(=O)(OCOC(=O)OC(C)C)OCOC(=O)OC(C)C)cc(C)c1Cc1ccc(O)c(C(C)C)c1 [Compound 12-3, di(isopropoxycarbonyloxymethyl)[3,5-dimethyl-4-(4′-hydroxy-3′-iso-propylbenzyl)phenoxy]methylphosphonate] | 775 | –
488 | 419 | 8 | 86 | Cc1cc(OC[P@@]2(=O)OCC[C@@H](c3cccc(Br)c3)O2)cc(C)c1Cc1ccc(O)c(C(C)C)c1 [Compound 13-2-cis, 2-[(3,5-dimethyl-4-(4′-hydroxy-3′-iso-propylbenzyl)phenoxy)methyl]-4-(3-bromophenyl)-2-oxo-2λ^5-[1,3,2]-diox aphosphonane] | 694 | –
2840 | 3430 | 46 | 46 | Cc1cc(OC[P@@]2(=O)OCC[C@@H](c3cccc(F)c3)O2)cc(C)c1Cc1ccc(O)c(C(C)C)c1 [Compound 13-3-cis] | 2118 | –
5530 | 1520 | 100 | 30 | Cc1cc(OC[P@@]2(=O)OCC[C@@H](c3cccnc3)O2)cc(C)c1Cc1ccc(O)c(C(C)C)c1 [Compound 13-4-cis, 2-[(3,5-dimethyl-4-(4′-hydroxy-3′-iso-propylbenzyl)phenoxy)methyl]-4-(pyrid-3-yl)-2-oxo-2λ^5-[1,3,2]-dioxaphosphonane] | 2983 | –
4430 | 1010 | 113 | 29 | Cc1cc(OC[P@@]2(=O)OCC[C@@H](c3ccncc3)O2)cc(C)c1Cc1ccc(O)c(C(C)C)c1 [Compound 13-5-cis, 2-[(3,5-dimethyl-4-(4′-hydroxy-3′-iso-propylbenzyl)phenoxy)methyl]-4-(pyrid-4-yl)-2-oxo-2λ^5-[1,3,2]-dioxaphosphonane] | 3266 | –
4710 | 3590 | 10 | 62 | Cc1cc(OC[P@]2(=O)OCC[C@H](c3ccc(Cl)cc3)O2)cc(C)c1Cc1ccc(O)c(C(C)C)c1 [Compound 13-6-cis, 2-[(3,5-dimethyl-4-(4′-hydroxy-3′-iso-propylbenzyl)phenoxy)methyl]-4-(4-chlorophenyl)-2-oxo-2λ^5-[1,3,2]-dioxaphosphonane] | 598 | –
– | – | – | – | CCOP(=O)(O)COc1cc(C)c(Cc2ccc(O)c(C(C)C)c2)c(C)c1 [Compound 69-1, [3,5-dimethyl-4-(4′-hydroxy-3′-iso-propylbenzyl)phenoxy]methylphosphonic acid monoethyl ester] | – | cholesterol lowering effects [6]: demonstrated cholesterol lowering effects; cardiovascular parameters (heart rate, LV dP/dt, systolic and diastolic blood pressure) [6]: no changes in any of the cardiovascular parameters
183 | 5.4 | – | – | Cc1cc(OCP(C)(=O)O)cc(C)c1Cc1ccc(O)c(C(C)C)c1 [Compound 70, [3,5-dimethyl-4-(4′-hydroxy-3′-iso-propylbenzyl)phenoxymethyl]methylphosphinic acid] | – | cholesterol lowering effects [6]: demonstrated cholesterol lowering effects; cardiovascular parameters (heart rate, LV dP/dt, systolic and diastolic blood pressure) [6]: no changes in any of the cardiovascular parameters; change in vivo at 0.2 mg/kg/day [7, 9]: -32.8%
4 | 0.4 | – | – | CC(C)c1cc(Oc2c(Br)cc(CP(C)(=O)O)cc2Br)ccc1O [Compound 71, [3,5-Dibromo-4-(4′-hydroxy-3′-isopropylphenoxy)benzyl]methylphosphinic Acid] | – | change in vivo at 0.2 mg/kg/day [7, 9]: -54.4%
– | – | – | – | Cc1cc(OCC(=O)O)cc(C)c1Cc1ccc(O)c(C(C)C)c1 [GC-1, [4-[[4-hydroxy-3-(1-methylethyl)phenyl]methyl]-3,5-dimethylphenoxy]acetic acid] | – | TSH levels [8]: dose-dependently lower; cholesterol levels [8]: dose-dependently lower

Compound | Ki [1] [nM] | Ki [3] [nM] | Km [4] [µM] | microsomal CLint [5] [µL/min/mg] | Vmax [5] [pmol/min/mg] | also measured
CC(C)c1cc(Oc2c(Br)cc(CP(=O)(O)O)cc2Br)ccc1O [Compound 19-2, [3,5-dibromo-4-(4′-hydroxy-3′-iso-propylphenoxy)]benzylphosphonic Acid] | 343 | 20 | – | – | – | absorption in the rat [2]: not adequately absorbed
COP(=O)(O)COc1cc(C)c(Cc2ccc(O)c(C(C)C)c2)c(C)c1 [Compound 69, [3,5-dimethyl-4-(4′-hydroxy-3′-iso-propylbenzyl)phenoxy]methylphosphonic acid monomethyl ester] | 13.5 | 3 | – | – | – | cholesterol lowering effects [6]: demonstrated cholesterol lowering effects; cardiovascular parameters (heart rate, LV dP/dt, systolic and diastolic blood pressure) [6]: no changes in any of the cardiovascular parameters; change in vivo at 0.2 mg/kg/day [7]: -41.9%
[3,5-dimethyl-4-(4′-Hydroxy-3′-iso-propyl-phenyl)methoxymethyl]phenoxy]methylphosphonic acid [Compound 33] | 267 | 16.7 | – | – | – | % Cholesterol Lowering ([7]; delivered i.p (0.2 mg/kg/d), percentage change from pre-dose cholesterol): −32.5%
